Data taken from ChEMBL document CHEMBL3885881, “DrugMatrix”.

Organism: Rattus norvegicus
Assay: DrugMatrix - Regimen: Daily Repeat
Format: toxicity, organism-based, Sprague-Dawley
Parameters: regimen Daily Repeat, gender Male, age 6-8 weeks
Conditions: in vivo, po, 620 mg/kg, route oral GAVAGE, dose level High, vehicle 100 % WATER; for BASOPHIL / EOSINOPHIL / ERYTHROCYTE COUNT / HEMATOCRIT / HEMOGLOBIN / LEUKOCYTE COUNT / LYMPHOCYTE / MEAN CORPUSCULAR HEMOGLOBIN / MEAN CORPUSCULAR HEMOGLOBIN CONCENTRATION / MEAN CORPUSCULAR VOLUME / MONOCYTE / NEUTROPHIL / PLATELET COUNT: tissue Blood; for ALANINE AMINOTRANSFERASE / ALBUMIN / ALKALINE PHOSPHATASE / ASPARTATE AMINOTRANSFERASE / BLOOD UREA NITROGEN / CARBON DIOXIDE / CHLORIDE / CHOLESTEROL / CREATINE PHOSPHOKINASE / CREATININE / GLUCOSE / LACTATE DEHYDROGENASE / LIPASE / PHOSPHORUS / POTASSIUM / SODIUM / TOTAL BILIRUBIN / TOTAL PROTEIN / URIC ACID: tissue Plasma

Compound: OCCNCCO [DIETHANOLAMINE]
- BASOPHIL (72 h, time 3 day): 0.67%
- EOSINOPHIL (72 h, time 3 day): 0.37%
- ERYTHROCYTE COUNT (72 h, time 3 day): 6.14 x10E6/uL
- HEMATOCRIT (72 h, time 3 day): 41.37%
- HEMOGLOBIN (72 h, time 3 day): 13.23 G/DL
- LEUKOCYTE COUNT (72 h, time 3 day): 8.17 x10E3/uL
- LYMPHOCYTE (72 h, time 3 day): 87.67%
- MEAN CORPUSCULAR HEMOGLOBIN (72 h, time 3 day): 21.6 pg
- MEAN CORPUSCULAR HEMOGLOBIN CONCENTRATION (72 h, time 3 day): 32.1 G/DL
- MEAN CORPUSCULAR VOLUME (72 h, time 3 day): 67.4 fL
- MONOCYTE (72 h, time 3 day): 2.03%
- NEUTROPHIL (72 h, time 3 day): 6.8%
- PLATELET COUNT (72 h, time 3 day): 1227 x10E3/uL
- ALANINE AMINOTRANSFERASE (72 h, time 3 day): 45.67 u/L
- ALBUMIN (72 h, time 3 day): 4.33 G/DL
- ALKALINE PHOSPHATASE (72 h, time 3 day): 468 u/L
- ASPARTATE AMINOTRANSFERASE (72 h, time 3 day): 125.67 u/L
- BLOOD UREA NITROGEN (72 h, time 3 day): 18 mg/dL
- CARBON DIOXIDE (72 h, time 3 day): 24.33 mmol/L
- CHLORIDE (72 h, time 3 day): 111 MEQ/L
- CHOLESTEROL (72 h, time 3 day): 75 mg/dL
- CREATINE PHOSPHOKINASE (72 h, time 3 day): 164.33 u/L
- CREATININE (72 h, time 3 day): 0.5 mg/dL
- GLUCOSE (72 h, time 3 day): 181.67 mg/dL
- LACTATE DEHYDROGENASE (72 h, time 3 day): 102.67 u/L
- LIPASE (72 h, time 3 day): 21.33 u/L
- PHOSPHORUS (72 h, time 3 day): 13.47 mg/dL
- POTASSIUM (72 h, time 3 day): 6.33 MEQ/L
- SODIUM (72 h, time 3 day): 154.33 MEQ/L
- TOTAL BILIRUBIN (72 h, time 3 day): 0.3 mg/dL
- TOTAL PROTEIN (72 h, time 3 day): 6.5 G/DL
- URIC ACID (72 h, time 3 day): 2.07 mg/dL
- BASOPHIL (120 h, time 5 day): 0.47%
- EOSINOPHIL (120 h, time 5 day): 0.37%
- ERYTHROCYTE COUNT (120 h, time 5 day): 6.72 x10E6/uL
- HEMATOCRIT (120 h, time 5 day): 42.63%
- HEMOGLOBIN (120 h, time 5 day): 13.57 G/DL
- LEUKOCYTE COUNT (120 h, time 5 day): 7.2 x10E3/uL
- LYMPHOCYTE (120 h, time 5 day): 85.43%
- MEAN CORPUSCULAR HEMOGLOBIN (120 h, time 5 day): 20.17 pg
- MEAN CORPUSCULAR HEMOGLOBIN CONCENTRATION (120 h, time 5 day): 31.77 G/DL
- MEAN CORPUSCULAR VOLUME (120 h, time 5 day): 63.43 fL
- MONOCYTE (120 h, time 5 day): 2.37%
- NEUTROPHIL (120 h, time 5 day): 9.9%
- PLATELET COUNT (120 h, time 5 day): 1342 x10E3/uL
- ALANINE AMINOTRANSFERASE (120 h, time 5 day): 54.33 u/L
- ALBUMIN (120 h, time 5 day): 4.7 G/DL
- ALKALINE PHOSPHATASE (120 h, time 5 day): 407 u/L
- ASPARTATE AMINOTRANSFERASE (120 h, time 5 day): 196.33 u/L
- BLOOD UREA NITROGEN (120 h, time 5 day): 18.33 mg/dL
- CARBON DIOXIDE (120 h, time 5 day): 26 mmol/L
- CHLORIDE (120 h, time 5 day): 109.33 MEQ/L
- CHOLESTEROL (120 h, time 5 day): 82.67 mg/dL
- CREATINE PHOSPHOKINASE (120 h, time 5 day): 320.67 u/L
- CREATININE (120 h, time 5 day): 0.33 mg/dL
- GLUCOSE (120 h, time 5 day): 164.33 mg/dL
- LACTATE DEHYDROGENASE (120 h, time 5 day): 81.33 u/L
- LIPASE (120 h, time 5 day): 24.67 u/L
- PHOSPHORUS (120 h, time 5 day): 12.87 mg/dL
- POTASSIUM (120 h, time 5 day): 5.67 MEQ/L
- SODIUM (120 h, time 5 day): 152.67 MEQ/L
- TOTAL BILIRUBIN (120 h, time 5 day): 0.4 mg/dL
- TOTAL PROTEIN (120 h, time 5 day): 7.07 G/DL
- URIC ACID (120 h, time 5 day): 2.27 mg/dL
- BASOPHIL ([…], time 14 day): 1.68%
- EOSINOPHIL ([…], time 14 day): 0.28%
- ERYTHROCYTE COUNT ([…], time 14 day): 6.33 x10E6/uL
- HEMATOCRIT ([…], time 14 day): 37.84%
- HEMOGLOBIN ([…], time 14 day): 12.58 G/DL
- LEUKOCYTE COUNT ([…], time 14 day): 17.16 x10E3/uL
- LYMPHOCYTE ([…], time 14 day): 79.3%
- MEAN CORPUSCULAR HEMOGLOBIN ([…], time 14 day): 19.88 pg
- MEAN CORPUSCULAR HEMOGLOBIN CONCENTRATION ([…], time 14 day): 33.26 G/DL
- MEAN CORPUSCULAR VOLUME ([…], time 14 day): 59.7 fL
- MONOCYTE ([…], time 14 day): 1.7%
- NEUTROPHIL ([…], time 14 day): 15.34%
- PLATELET COUNT ([…], time 14 day): 590 x10E3/uL
- ALANINE AMINOTRANSFERASE ([…], time 14 day): 40.2 u/L
- ALBUMIN ([…], time 14 day): 4.34 G/DL
- ALKALINE PHOSPHATASE ([…], time 14 day): 449 u/L
- ASPARTATE AMINOTRANSFERASE ([…], time 14 day): 305.8 u/L
- BLOOD UREA NITROGEN ([…], time 14 day): 32.2 mg/dL
- CARBON DIOXIDE ([…], time 14 day): 27.6 mmol/L
- CHLORIDE ([…], time 14 day): 106 MEQ/L
- CHOLESTEROL ([…], time 14 day): 46.6 mg/dL
- CREATINE PHOSPHOKINASE ([…], time 14 day): 123.4 u/L
- CREATININE ([…], time 14 day): 0.56 mg/dL
- GLUCOSE ([…], time 14 day): 162 mg/dL
- LACTATE DEHYDROGENASE ([…], time 14 day): 58 u/L
- LIPASE ([…], time 14 day): 19 u/L
- PHOSPHORUS ([…], time 14 day): 12.6 mg/dL
- POTASSIUM ([…], time 14 day): 5.54 MEQ/L
- SODIUM ([…], time 14 day): 151 MEQ/L
- TOTAL BILIRUBIN ([…], time 14 day): 0.34 mg/dL
- TOTAL PROTEIN ([…], time 14 day): 6.32 G/DL
- URIC ACID ([…], time 14 day): 0.68 mg/dL
